In patent US4797421A, “Antioxidant comprising proanthocyanidin as principal component” (Kikkoman Corporation, priority 1987, dated 1989):

Test: Amount of lipid peroxide in salad oil heated at 180° C. with oxygen bubbling (Test Example 1, Table 1)
Parameters: Amount of lipid peroxide: unit not given here
Settings: 0.2 mg/ml in salad oil, oxygen 2 ml/sec, 40 minutes; for Amount of lipid peroxide: no additive 65.2, non-treated 10.1
Method: A commercially sold salad oil (a product by Showa Sangyo Co., Ltd.) was pipetted 5 ml each into test tubes. Then various kinds of proanthocyanidins shown in Table 1 below were added thereto a concentration of 0.2 mg/ml and dissolved by stirring. The test tubes were kept in an 180° C. thermostatic oil bath and oxygen gas was bubbled into them at a rate of 2 ml/sec. 40 mintues thereafter, the amount of lipid peroxide in the salad oil was measured by the method shown in Yagi's Vitamins, Vol. 49, pp. 403-405. Used as controls were said salad oil added with no proanthocyanidin (control I) and those added with a commercial catechin, a gallocatechin obtained as a by-product in Preparation Example 5 and an epigallocatechin gallate, which are the monomers forming a structural unit of proanthocyanidins (control II). These control salad oil samples were similarly treated and the amount of lipid peroxide was similarly measured, the results being shown in Table 1.

Structure (SMILES) | Lipid peroxide rise inhibition rate | Amount of lipid peroxide
Oc1cc(O)c2c(c1)OC(c1cc(O)c(O)c(O)c1)C(O)C2c1c(O)cc(O)c2c1OC(c1cc(O)c(O)c(O)c1)C(O)C2c1c(O)cc(O)c2c1OC(c1ccc(O)c(O)c1)C(O)C2 (centres unmarked) [Trimeric prodelphinidin] | 74% | 22.9
Oc1cc(O)c2c(c1)OC(c1ccc(O)c(O)c1)C(O)C2c1c(O)cc(O)c2c1OC(c1ccc(O)c(O)c1)C(O)C2c1c(O)cc(O)c2c1OC(c1ccc(O)c(O)c1)C(O)C2c1c(O)cc(O)c2c1OC(c1ccc(O)c(O)c1)C(O)C2 (centres unmarked) [Tetrameric procyanidin] | 62% | 29.1
Oc1cc(O)c2c(c1)OC1(c3ccc(O)c(O)c3)Oc3cc(O)c4c(c3C2C1O)OC(c1ccc(O)c(O)c1)C(O)C4 (centres unmarked) [Dimeric procyanidin A-2, procyanidin A-2] | – | 25.0
O=C(O[C@@H]1Cc2c(O)cc(O)cc2O[C@@H]1c1cc(O)c(O)c(O)c1)c1cc(O)c(O)c(O)c1 [Epigallocatechin gallate, reference compound] | 35% | 45.0
Oc1cc(O)c2c(c1)O[C@H](c1cc(O)c(O)c(O)c1)[C@@H](O)[C@@H]2c1c(O)cc(O)c2c1O[C@H](c1cc(O)c(O)c(O)c1)[C@@H](O)C2 [Dimeric prodelphinidin B-3, prodelphinidin B-3] | 85% | 17.2
O=C(OC1Cc2c(O)cc(O)c(C3c4c(O)cc(O)cc4OC(c4cc(O)c(O)c(O)c4)C3OC(=O)c3cc(O)c(O)c(O)c3)c2OC1c1cc(O)c(O)c(O)c1)c1cc(O)c(O)c(O)c1 (centres unmarked) [prodelphinidin B-2 gallic acid diester] | 100% | 10.1
Oc1cc(O)c2c(c1)O[C@H](c1cc(O)c(O)c(O)c1)[C@@H](O)C2 [Gallocatechin, gallocatechin, reference compound] | 32% | 44.7
O=C(OC1Cc2c(O)cc(O)c(C3c4c(O)cc(O)cc4OC(c4ccc(O)c(O)c4)C3OC(=O)c3cc(O)c(O)c(O)c3)c2OC1c1ccc(O)c(O)c1)c1cc(O)c(O)c(O)c1 (centres unmarked) [procyanidin B-2 gallic acid diester] | 98% | 10.5
Oc1cc(O)c2c(c1)OC(c1ccc(O)c(O)c1)C(O)C2c1c(O)cc(O)c2c1OC(c1ccc(O)c(O)c1)C(O)C2 (centres unmarked) [Dimeric procyanidin B-2, procyanidin B-2] | – | 22.4
Oc1cc(O)c2c(c1)O[C@H](c1ccc(O)c(O)c1)[C@@H](O)C2 [Commercial d-catechin, d-catechin, reference compound] | – | 54.7
